Legend:
Format in all cases: in vivo
[1] = tested on: brain serotonin; test: Brain serotonin content in wild-type mice (HPLC); conditions: WT mice, 250 mg/kg orally
Experimental: FIG. 15. HPLC analysis of serotonin content in the brain of wild-type mice that received vehicle or LP-533,401 (250 mg/kg, orally) for 1 day.
(§1) Blood samples were collected from mice and rats through cardiac puncture under isoflurane anesthesia, kept on ice for 5 min, and centrifuged at 13,000 rpm for 10 min at 4° C. Serum samples were stored at −80° C. until hormonal analyses were performed. Serum serotonin levels were quantified by ELISA (Serotonin kit, Fitzgerald) while serotonin levels in brain regions were quantified by HPLC as described previously (Mann et al., 1992, Arch. Gen. Psychiatry 49:442-446). Serum levels of total deoxypyridinoline (DPD) cross-links was measured using the Merta tDPD kit (Quidel corp. Sandiago, Calif.) and Osteocalcin using Rat and Mouse Ocn IRMA kit.

[2] = tested on: serum serotonin; test: Serum serotonin levels in ovariectomized mice; conditions: OVX mice
Experimental: Six-week-old wild-type virgin female mice were purchased from the Jackson Laboratories and subjected to either bilateral ovariectomy or a sham operation after a few days of acclimatization to the animal facility post-arrival. Ovariectomy was performed under isofluorane anesthesia through dorsal, subrenal incision. In the first experiment, mice were treated from day 1 post-ovariectomy for 4 weeks with LP-533,401 (1, 10, 100 or 250 mg/kg/day) or vehicle. In the second experiment, mice were treated for 4 weeks from 2 to 6-weeks post-ovariectomy with LP-533,401 (250 mg/kg/day) or vehicle. In the third set of experiments, mice were treated for 6 weeks from 6 to 12-weeks post-ovariectomy with LP-533,401 (250 mg/kg/day) or vehicle. […]
as §1, with “Serum samples were stored at −80° C. until hormonal analyses were performed.” left out

[3] = tested on: ovariectomized rats; test: Curative regimen in ovariectomized rats (histomorphometry, μCT, biomechanical testing); conditions: OVX rats
Experimental: Virgin female Sprague-Dawley rats (National Institute of Nutrition, Hyderabad, India) were obtained at 3 months of age and allowed to acclimate to the facility for 1 week before study initiation and surgical procedures. They were housed under a 12 hour:12 hour light:dark cycle and provided throughout the study with water and PMI (Purina Mills, Incorporated) Certified Rodent Laboratory Chow. Rats were subjected to either bilateral ovariectomy or a sham operation under isoflurane anesthesia. […] The rats were divided into two groups of sham-operated and ovariectomized animals and left untreated for 3 weeks to allow bone loss to occur. One group of sham and one group of ovariectomized rats (n=10/group) were killed as baseline controls to determine bone loss before the start of LP-533,401 or PTH administration. The remaining animals (n=5-10/group) received vehicle or LP-533,401 (250 mg/kg/day) by gavage, or recombinant human PTH (80 ug/kg) by daily subcutaneous (s.c.) injection for 4 weeks. The 80 ug/kg dose of PTH was selected as being optimal for reversal of ovariectomy-induced bone loss in rats based on previous studies, while the dose of LP-533,401 was selected based on the effective dose for bone loss-reversal observed in mice experiments. To label bone-forming surfaces, animals were injected s.c. with calcein (8 mg/kg) at 10 and 3 days before death. Animals were killed by an overdose of Isofluorane anesthesia. The right tibia and lumbar vertebra 2 (L2) were collected, cleaned of excess soft tissue, fixed overnight in 10% formalin and processed for μCT or histomorphometric analysis. The right femur and L3 were cleaned of excess tissue and stored at −20° C. prior to biomechanical testing.
Bone histomorphometry was performed as previously described (Duey et al., 2000, Cell 100:197-207; Takeda et al., 2002, Cell 111:305-317; Parfitt et al., 1987, J. Bone Miner. Res. 2:595-610). Briefly, lumbar vertebrae were dissected, fixed for 24 hr in 10% formalin, dehydrated in graded ethanol series, and embedded in methyl methacrylate resin according to standard protocols (Parfitt et al., 1987, J. Bone Miner. Res. 2:595-610). Von Kossa/Von Gieson staining was performed using 7 μm sections for bone volume over tissue volume (BV/TV) measurement. Bone formation rate (BFR) was analyzed by the calcein double-labeling method (Ducy et al., 2000, Cell 100:197-207). Calcein (Sigma Chemical Co., St. Louis, Mo.) was dissolved in calcein buffer (0.15 M NaCl, 2% NaHCO3) and injected twice at 0.125 mg/g body weight on day 1 and 4, and then mice were killed on day 6. Unstained 4 μm sections were used for bone formation rate (BFR) measurements. For the analysis of parameters of osteoblasts and osteoclasts, 4 μm sections were stained with toluidine blue and tartrate-resistant acid phosphatase (TRAP), respectively (2). Histomorphometric analyses were performed using the Osteomeasure Analysis System (Osteometrics, Atlanta, Ga.).
Trabecular bone architecture of proximal tibia was assessed using a micro computed tomography (μCT) system (VivaCT 40, SCANCO Medical AG, Bassersdorf, Switzerland). Tibia bone specimen was stabilized with gauze in a 2 ml centrifuge tube filled with 70% ethanol and fastened in the specimen holder of the μCT scanner. One hundred μCT slices, corresponding to a 1.05 mm region distal from the growth plate, were acquired at an isotropic spatial resolution of 10.5 μm. A global thresholding technique was applied to binarize gray-scale μCT images where the minimum between the bone and bone marrow peaks in the voxel gray value histogram was chosen as the threshold value. The trabecular bone compartment was segmented by a semi-automatic contouring method and subjected to a model-independent morphological analysis (Hildebrand et al., 1999, J. Bone Miner. Res. 14:1167-1174) by the standard software provided by the manufacture of the μCT scanner. […]

[4] = long bones, μCT, all doses tested
[5] = LP-533,401 250 mg/kg/day, PTH 80 μg/kg/day

`Nc1nc(OC(c2ccc(-c3cccc(F)c3)cc2)C(F)(F)F)cc(-c2ccc(C[C@H](N)C(=O)O)cc2)n1` (stereo partly drawn) [LP-533401, (2S)-2-amino-3-(4-(2-amino-6-(2,2,2-trifluoro-1-(3′-fluorobiphenyl-4-yl)ethoxy)pyrimidin-4-yl)phenyl)propanoic acid] was tested, and the brain serotonin content [1] was “no change”, the “decrease of serum serotonin levels” value ([2]; 250 mg/kg/day for 4 weeks from week 2 post-ovariectomy) was 80% and the serum serotonin levels ([2]; day 1 to 28 post-ovariectomy) was “decreased”. For the same compound, the “number of osteoclasts per bone surface (OcS/BS) versus untreated ovariectomized rats” value [3] was “similar”, the “ovariectomy-induced bone loss, histomorphometric analysis of vertebra” value ([3]; given 3 or 12 weeks post-ovariectomy for 4 weeks, even at 25 mg/kg/day) was “fully rescued” and the “efficiency compared with PTH (80 μg/kg/day, s.c.)” value ([3]; long bones, μCT) was “as efficient as the PTH regimen”. The “trabecular spacing (Tb.Sp*)” value [3, 4] was “reduced”, the “trabecular thickness (Tb.Th*)” value [3, 4] was “significantly increased” and the “trabecular number (Tb.N*)” value ([3]; long bones, μCT, all doses tested (25, 100, 250 mg/kg/day)) was “significantly increased”. For the same compound, the bone formation rate ([3]; vertebra) was “significant increase”, the osteoblast number ([3]; vertebra) was “significant increase” and the “bone mass in long bones versus vehicle-treated controls” value ([3]; μCT) was “increasing, in a dose-dependent manner”. The “decrease in cortical thickness at the femur mid-shaft” value [3, 5] was “equally rescued”, the “maximal load (femur, vertebra)” value [3, 5] was “restored to values seen in sham-operated rats” and the “stiffness (femur, vertebra)” value [3, 5] was “restored to values seen in sham-operated rats”.

— patent publication US8614222B2, “Methods of preventing and treating low bone mass diseases” (The Trustees of Columbia University in the City of New York, priority 2008, dated 2013)
